Data published in PubChem BioAssay (NCI).
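GI50 is the concentration that inhibits growth by half. TGI: concentration producing complete growth inhibition.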

Legend:
Experiment in all cases: NCI anticancer screen, dose series, 384-well format
T-47D breast = test system: T-47D breast
OVCAR-8 ovarian = test system: OVCAR-8 ovarian
LOX IMVI melanoma = test system: LOX IMVI melanoma
SW-620 colon = test system: SW-620 colon
MDA-MB-435 melanoma = test system: MDA-MB-435 melanoma
SF-539 CNS = test system: SF-539 CNS
U251 glioblastoma = test system: U251 glioblastoma
HL-60(TB) leukemia = test system: HL-60(TB) leukemia
SF-295 CNS = test system: SF-295 CNS
BT-549 breast = test system: BT-549 breast
NCI-H23 lung = test system: NCI-H23 lung
CAKI-1 renal = test system: CAKI-1 renal
IGROV1 ovarian = test system: IGROV1 ovarian
DU-145 prostate = test system: DU-145 prostate
SR leukemia = test system: SR leukemia
NCI-H322M lung = test system: NCI-H322M lung
SF-268 CNS = test system: SF-268 CNS
RPMI-8226 leukemia = test system: RPMI-8226 leukemia
SNB-75 CNS = test system: SNB-75 CNS
EKVX NSCLC = test system: EKVX NSCLC
HCT-15 colon = test system: HCT-15 colon
A498 renal = test system: A498 renal
UACC-62 melanoma = test system: UACC-62 melanoma
TK-10 renal = test system: TK-10 renal
NCI-H522 lung = test system: NCI-H522 lung
HOP-92 NSCLC = test system: HOP-92 NSCLC
CCRF-CEM leukemia = test system: CCRF-CEM leukemia
A549 NSCLC = test system: A549 NSCLC
NCI-H226 lung = test system: NCI-H226 lung
SNB-19 CNS = test system: SNB-19 CNS
UO-31 renal = test system: UO-31 renal
MDA-MB-468 breast = test system: MDA-MB-468 breast
OVCAR-4 ovarian = test system: OVCAR-4 ovarian
K-562 leukemia = test system: K-562 leukemia
OVCAR-3 ovarian = test system: OVCAR-3 ovarian
786-0 renal = test system: 786-0 renal
ACHN renal = test system: ACHN renal
MDA-MB-231 breast = test system: MDA-MB-231 breast
COLO 205 colon = test system: COLO 205 colon
KM12 colon = test system: KM12 colon
HCC-2998 colon = test system: HCC-2998 colon
MCF7 breast = test system: MCF7 breast
MALME-3M melanoma = test system: MALME-3M melanoma
HOP-62 NSCLC = test system: HOP-62 NSCLC
SN12C renal = test system: SN12C renal
HS 578T breast = test system: HS 578T breast
MOLT-4 leukemia = test system: MOLT-4 leukemia
HT29 colon = test system: HT29 colon
SK-MEL-5 melanoma = test system: SK-MEL-5 melanoma
HCT-116 colon = test system: HCT-116 colon
PC-3 prostate = test system: PC-3 prostate
RXF 393 renal = test system: RXF 393 renal
NCI-H460 NSCLC = test system: NCI-H460 NSCLC
SK-OV-3 ovarian = test system: SK-OV-3 ovarian
UACC-257 melanoma = test system: UACC-257 melanoma
NCI/ADR-RES ovarian = test system: NCI/ADR-RES ovarian
M14 melanoma = test system: M14 melanoma
SK-MEL-28 melanoma = test system: SK-MEL-28 melanoma

Molecule `Nc1cc(C(F)(F)F)c(-c2nc(N3CCOCC3)nc(N3CCOCC3)n2)cn1` has a GI50 (T-47D breast) of 0.107 µM, a TGI (T-47D breast) of 0.583 µM and a GI50 (OVCAR-8 ovarian) of 1.12 µM. For the same molecule, the TGI (OVCAR-8 ovarian) was 93.6 µM, the GI50 (LOX IMVI melanoma) was 1.57 µM and the TGI (LOX IMVI melanoma) was 9.36 µM. For the same molecule, the GI50 (SW-620 colon) was 2.6 µM, the TGI (SW-620 colon) was greater than 100 µM and the GI50 (MDA-MB-435 melanoma) was 1.6 µM. For the same molecule, the TGI (MDA-MB-435 melanoma) was 9.73 µM, the GI50 (SF-539 CNS) was 1.15 µM and the TGI (SF-539 CNS) was 13.7 µM. It also gave a GI50 (U251 glioblastoma) of 3.23 µM, a TGI (U251 glioblastoma) of 95.5 µM and a GI50 (HL-60(TB) leukemia) of 0.17 µM. The TGI (HL-60(TB) leukemia) was 3.43 µM, the GI50 (SF-295 CNS) was 0.405 µM and the TGI (SF-295 CNS) was 2.44 µM. The GI50 (BT-549 breast) was 0.678 µM, the TGI (BT-549 breast) was 4.42 µM and the GI50 (NCI-H23 lung) was 0.552 µM. It also gave a TGI (NCI-H23 lung) of 15.9 µM, a GI50 (CAKI-1 renal) of 0.292 µM and a TGI (CAKI-1 renal) of 2.95 µM. It also gave a GI50 (IGROV1 ovarian) of 0.119 µM, a TGI (IGROV1 ovarian) of 0.468 µM and a GI50 (DU-145 prostate) of 0.847 µM. The TGI (DU-145 prostate) was 21.3 µM, the TGI (SR leukemia) was 0.255 µM and the GI50 (NCI-H322M lung) was 0.534 µM. It also gave a TGI (NCI-H322M lung) of 11.5 µM, a GI50 (SF-268 CNS) of 1.46 µM and a TGI (SF-268 CNS) of 18.2 µM. It also gave a GI50 (RPMI-8226 leukemia) of 0.221 µM, a TGI (RPMI-8226 leukemia) of 1.27 µM and a GI50 (SNB-75 CNS) of 0.288 µM. It also gave a TGI (SNB-75 CNS) of 2.92 µM, a GI50 (EKVX NSCLC) of 0.342 µM and a TGI (EKVX NSCLC) of 3.53 µM. The GI50 (HCT-15 colon) was 0.497 µM, the TGI (HCT-15 colon) was greater than 100 µM and the GI50 (A498 renal) was 0.32 µM. The TGI (A498 renal) was 2.26 µM, the GI50 (UACC-62 melanoma) was 0.52 µM and the TGI (UACC-62 melanoma) was 3.79 µM. The GI50 (TK-10 renal) was 0.432 µM, the TGI (TK-10 renal) was 3.87 µM and the GI50 (NCI-H522 lung) was 0.36 µM. It also gave a TGI (NCI-H522 lung) of 10.2 µM, a GI50 (HOP-92 NSCLC) of 0.274 µM and a TGI (HOP-92 NSCLC) of 2.12 µM. For the same molecule, the GI50 (CCRF-CEM leukemia) was 1.34 µM, the TGI (CCRF-CEM leukemia) was 10.9 µM and the GI50 (A549 NSCLC) was 0.902 µM. It also gave a TGI (A549 NSCLC) of 9 µM, a GI50 (NCI-H226 lung) of 0.563 µM and a TGI (NCI-H226 lung) of 4.35 µM. It also gave a GI50 (SNB-19 CNS) of 8.53 µM, a TGI (SNB-19 CNS) of 50.2 µM and a GI50 (UO-31 renal) of 0.426 µM. For the same molecule, the TGI (UO-31 renal) was 19.2 µM, the GI50 (MDA-MB-468 breast) was 0.353 µM and the TGI (MDA-MB-468 breast) was 2.2 µM. The GI50 (OVCAR-4 ovarian) was 1.48 µM, the TGI (OVCAR-4 ovarian) was 7.9 µM and the GI50 (K-562 leukemia) was 2.78 µM. It also gave a TGI (K-562 leukemia) of 40.5 µM, a GI50 (OVCAR-3 ovarian) of 0.354 µM and a TGI (OVCAR-3 ovarian) of 3.92 µM. The GI50 ([…]-0 renal) was 1.32 µM, the TGI (786-0 renal) was 12.1 µM and the GI50 (ACHN renal) was 0.57 µM. The TGI (ACHN renal) was 8.66 µM, the GI50 (MDA-MB-231 breast) was 0.834 µM and the TGI (MDA-MB-231 breast) was 38.7 µM. It also gave a GI50 (COLO 205 colon) of 0.544 µM, a TGI (COLO 205 colon) of 9.66 µM and a GI50 (KM12 colon) of 1.27 µM. It also gave a TGI (KM12 colon) of 14.6 µM, a GI50 (HCC-2998 colon) of 1.1 µM and a TGI (HCC-2998 colon) of 48.9 µM. For the same molecule, the GI50 (MCF7 breast) was 0.151 µM, the TGI (MCF7 breast) was 11.9 µM and the GI50 (MALME-3M melanoma) was 0.174 µM. The TGI (MALME-3M melanoma) was 1.03 µM, the GI50 (HOP-62 NSCLC) was 1.31 µM and the TGI (HOP-62 NSCLC) was 14.1 µM. The GI50 (SN12C renal) was 0.195 µM, the TGI (SN12C renal) was 2.3 µM and the GI50 (HS 578T breast) was 0.276 µM. It also gave a TGI (HS 578T breast) of 1.86 µM, a GI50 (MOLT-4 leukemia) of 0.293 µM and a TGI (MOLT-4 leukemia) of 1.61 µM. For the same molecule, the GI50 (HT29 colon) was 0.554 µM, the TGI (HT29 colon) was 14.8 µM and the GI50 (SK-MEL-5 melanoma) was 0.503 µM. The TGI (SK-MEL-5 melanoma) was 2.81 µM, the GI50 (HCT-116 colon) was 0.833 µM and the TGI (HCT-116 colon) was 22.5 µM. It also gave a GI50 (PC-3 prostate) of 0.291 µM, a TGI (PC-3 prostate) of 4.27 µM and a GI50 (RXF 393 renal) of 1.15 µM. It also gave a TGI (RXF 393 renal) of 4.96 µM, a GI50 (NCI-H460 NSCLC) of 0.246 µM and a TGI (NCI-H460 NSCLC) of 10.4 µM. It also gave a GI50 (SK-OV-3 ovarian) of 0.332 µM, a TGI (SK-OV-3 ovarian) of 2.04 µM and a GI50 (UACC-257 melanoma) of 1.7 µM. For the same molecule, the TGI (UACC-257 melanoma) was 20.8 µM, the GI50 (NCI/ADR-RES ovarian) was 1.92 µM and the TGI (NCI/ADR-RES ovarian) was 17.3 µM. The GI50 (M14 melanoma) was 0.616 µM, the TGI (M14 melanoma) was 12.5 µM and the GI50 (SK-MEL-28 melanoma) was 0.461 µM. The TGI (SK-MEL-28 melanoma) was 6.54 µM.
